Source: US7163928B2 (CV Therapeutics, Inc., priority 2003, dated 2007)
“And” between values parts separate entries of the source, which are not always exact repeats. Equal entries are not always repeated.

Test system: not given
Experiment: not given
Settings: cited from earlier work

Compound | half-life
Nc1ncnc2c1ncn2[C@@H]1O[C@H](CO)[C@@H](O)[C@H]1O [adenosine, Adenosine] | less than 10 sec

Biological target: T1, A1 adenosine receptor (Mesocricetus auratus, UniProt A0A1U8BVR4)
T1 construct: A1 adenosine receptor sites on the membranes of DDT cells; endogenous in cells; host or cells: DDT1 cells (hamster vas deferens smooth muscle cell line), membrane preparation
T1 sequence (A0A1U8BVR4 1-326): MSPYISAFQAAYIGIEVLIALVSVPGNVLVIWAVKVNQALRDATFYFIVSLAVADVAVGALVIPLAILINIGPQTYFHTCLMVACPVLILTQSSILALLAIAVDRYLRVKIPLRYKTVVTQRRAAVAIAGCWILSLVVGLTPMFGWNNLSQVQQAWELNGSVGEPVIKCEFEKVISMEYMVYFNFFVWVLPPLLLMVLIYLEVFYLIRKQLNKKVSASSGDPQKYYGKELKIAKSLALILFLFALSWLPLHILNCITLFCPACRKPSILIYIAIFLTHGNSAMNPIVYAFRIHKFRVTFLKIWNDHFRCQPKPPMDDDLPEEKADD
Experiment: Competitive binding assay, DDT cell membranes, 3H-CPX
Design: species or system hamster
Settings: 1.5 nM 3H-CPX, 10 μM GTP-γS, 23° C. 90 minutes, read-out: Ki (low)
Protocol: DDT cells (hamster vas deferens smooth muscle cell line) were grown as monolayers in petri dishes using Dulbecco's Modified Eagle's Medium (DMEM) containing 2.5 μg mL^−1 amphotericin B, 100 U mL^−1 penicillin G, 0.1 mg mL^−1 streptomycin sulfate and 5% fetal bovine serum in a humidified atmosphere of 95% air and 5% CO2. Cells were subcultured twice weekly by dispersion in Hank's Balanced Salt Solution (HBSS) without the divalent cations and containing 1 mM EDTA. The cells were then seeded in growth medium at a density of 1.2×10^5 cells per plate and experiments were performed 4 days later at approximately one day preconfluence.
Attached cells were washed twice with HBSS (2×10 mL), scraped free of the plate with the aid of a rubber policeman in 5 mL of 50 mM Tris-HCl buffer pH 7.4 at 4° C. and the suspension homogenized for 10 s. The suspension was then centrifuged at 27,000×g for 10 min. The pellet was resuspended in homogenization buffer by vortexing and centrifuged as described above. The final pellet was resuspended in 1 vol of 50 mM Tris-HCl buffer pH 7.4 containing 5 mM MgCl2 for A1 adenosine receptor assays. For the [^35S]GTPγS binding assay the final pellet was resuspended in 50 mM Tris-HCl pH 7.4 containing 5 mM MgCl2, 100 mM NaCl and 1 mM dithiothreitol. This membrane suspension was then placed in liquid nitrogen for 10 min, thawed and used for assays. The protein content was determined with a Bradford™ Assay Kit using bovine serum albumin as standard.
Compounds of Formula I were assayed to determine their affinity for the A1 adenosine receptor sites on the membranes of DDT cells. Briefly, 50–70 ug of membrane protein were incubated in a mixture containing 2 U/ml adenosine deaminase, 10 μM GTP-γS in 5 mM HE buffer containing 5 mM MgCl2 in glass tubes Stock solutions of the compounds of the invention were serially diluted (10^−10M to 10^−4M) in HE buffer or HE buffer alone (to determine total binding) and added to the incubation mixture. Finally, tritiated […] (^3H-CPX) was added to a final concentration of 1.5 nM. After incubation at 23° C. 90 minutes, the reaction was stopped by filtration on a Brandel MR24 cell harvester and washing with ice-cold Tris-EDTA buffer (three times, approximate volume 10 ml/wash) over Whatman GF/B filters (presoaked for 1 h in 0.3% polyethylenimine to reduce non-specific binding). Filters were transferred to scintillation vials and 5 ml of Scintisafe (VWR, Brisbane, Calif.) was added. The amount of radioactivity retained on the filters was determined by liquid scintillation spectrometry. Protein determinations were by the method of Bradford (1976. Anal. Biochem. 72:248) using bovine serum albumin as the standard.

Compound | Ki
OC[C@@H]1C[C@@H](O)[C@H](n2cnc3c(N[C@H]4CCC[C@@H]4O)ncnc32)O1 [CVT 4625, (5S,2R,3R)-2-{6-[((1S,2S)-2-hydroxycyclopentyl)amino]purin-9-yl}-5-(hydroxymethyl)oxolan-3-ol] | 4.09 µM and 3.69 µM
OC[C@@H]1C[C@@H](O)[C@H](n2cnc3c(N[C@H]4CC[C@H](O)CC4)ncnc32)O1 | > 5 µM
(3R)-3-({9-[(5S,2R,3R)-3-hydroxy-5-(hydroxymethyl)oxolan-2-yl]purin-6-yl}amino)pyrrolidinyl naphthyl ketone [CVT 4627] | 1.91 µM and 2.56 µM
OC[C@@H]1C[C@@H](O)[C@H](n2cnc3c(N[C@@H]4CCOC4)ncnc32)O1 [CVT 3454, 2-{6-[((3R)oxolan-3-yl)amino]purin-9-yl}(5S,2R,3R)-5-(hydroxymethyl)oxolan-3-ol] | 1 µM
4-{[(3R)-3-({9-[(5S,2R,3R)-3-hydroxy-5-(hydroxymethyl)oxolan-2-yl]purin-6-yl}amino)pyrrolidinyl]carbonyl}benzenecarbonitrile [CVT 4608] | > 5 µM
(3R)-3-({9-[(5S,2R,3R)-3-hydroxy-5-(hydroxymethyl)oxolan-2-yl]purin-6-yl}amino)pyrrolidinyl 2-naphthyl ketone [CVT 4612] | > 5 µM
OC[C@@H]1C[C@@H](O)[C@H](n2cnc3c(N[C@@H]4CCCC4O)nc(Cl)nc32)O1 (stereo partly drawn) [CVT 4626, 2-{6-[((1R)-2-hydroxycyclopentyl)amino]-2-chloropurin-9-yl}(5S,2R,3R)-5-(hydroxymethyl)oxolan-3-ol] | 4.01 µM and 3.5 µM
(3R)-3-({9-[(5S,2R,3R)-3-hydroxy-5-(hydroxymethyl)oxolan-2-yl]purin-6-yl}amino)pyrrolidinyl 4-ethylphenyl ketone [CVT 4611] | > 5 µM
(3R)-3-({9-[(5S,2R,3R)-3-hydroxy-5-(hydroxymethyl)oxolan-2-yl]purin-6-yl}amino)pyrrolidinyl 4-fluorophenyl ketone [CVT 4607] | > 5 µM
CC(=O)N1CC[C@@H](Nc2ncnc3c2ncn3[C@@H]2O[C@H](CO)C[C@H]2O)C1 [CVT 4617, (3R)-3-({9-[(5S,2R,3R)-3-hydroxy-5-(hydroxymethyl)oxolan-2-yl]purin-6-yl}amino)-1-acetylpyrrolidine] | > 5 µM
OC[C@@H]1C[C@@H](O)[C@H](n2cnc3c(N[C@@H]4CCCCC4O)ncnc32)O1 (stereo partly drawn) [CVT 4622, 2-{6-[((1R)-2-hydroxycyclohexyl)amino]purin-9-yl}(5S,2R,3R)-5-(hydroxymethyl)oxolan-3-ol] | 4.44 µM and 2.94 µM
(3R)-3-({9-[(5S,2R,3R)-3-hydroxy-5-(hydroxymethyl)oxolan-2-yl]purin-6-yl}amino)pyrrolidinyl 3-fluorophenyl ketone [CVT 4613] | > 5 µM
1-[(3R)-3-({9-[(5S,2R,3R)-3-hydroxy-5-(hydroxymethyl)oxolan-2-yl]purin-6-yl}amino)pyrrolidinyl]-2-methylpropan-1-one [CVT 4614] | > 5 µM
(3R)-3-({9-[(5S,2R,3R)-3-hydroxy-5-(hydroxymethyl)oxolan-2-yl]purin-6-yl}amino)pyrrolidinyl 4-methoxyphenyl ketone [CVT 4609] | > 5 µM
O=S(=O)(c1ccccc1)N1CC[C@@H](Nc2ncnc3c2ncn3[C@@H]2O[C@H](CO)C[C@H]2O)C1 [CVT 4629, (3R)-3-({9-[(5S,2R,3R)-3-hydroxy-5-(hydroxymethyl)oxolan-2-yl]purin-6-yl}amino)-1-(phenylsulfonyl)pyrrolidine] | > 5 µM
(3R)-3-({9-[(5S,2R,3R)-3-hydroxy-5-(hydroxymethyl)oxolan-2-yl]purin-6-yl}amino)pyrrolidinyl 2-fluorophenyl ketone [CVT 4606] | 2.84 µM
(3R)-3-({9-[(5S,2R,3R)-3-hydroxy-5-(hydroxymethyl)oxolan-2-yl]purin-6-yl}amino)pyrrolidinyl 4-(trifluoromethyl)phenyl ketone [CVT 4610] | > 5 µM
